Legend:
YAP-TEAD interaction = experiment: SK-HEP-1 reporter assay (8xTEAD responsive elements driving NanoLuc luciferase); assay type: cell-based; conditions: Homo sapiens, SK-HEP1, SK-HEP-1 reporter assay
Procedure, shortened: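 SK-HEP-1 cells stably carrying an 8×TEAD-element NanoLuc reporter were treated in duplicate with 10-point dilutions from a top final 30 μM (0.3% DMSO). After 24 h at 37 °C, luciferase activity was read by luminescence with NanoGlo lysis/substrate reagent, and IC50 values were derived.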

NCI-H226 cells = experiment: Viability assay in NCI-H226 (Yap-dependent) cells, CyQUANT; assay type: cell-based; conditions: Homo sapiens
Procedure: (§1) Viability Assay in NCI-H226 (Yap-Dependent) and SW620 Yap KO (Yap Independent) Cells
(§2) The ability of YAP-TEAD inhibitors to inhibit tumor cell growth was evaluated using two different cell lines: NCI-H226, which is a YAP dependent cell line, and SW620 cells, where YAP and TAZ were knocked out using CRISPR to generate a YAP independent cell line.
(§3) For the assay, cells were treated in duplicates with the test compounds in a 10-point dose, 1:3 dilution steps, with the top concentration starting at 30 μM (final concentration in assay). After a 96 hour incubation at 37° C., 95% rH, and 5% CO2, a cell-permeant DNA-binding dye that stains only healthy cells (CyQUANT®, Promega) was added to the cells, allowing the quantification of cell viability.
(§4) Cell Media: The NCI-H226 cells were cultured in the following media: RPMI 1640, +10% FBS, +1× GlutaMAX, +10 mM HEPES, +0.5% Pen/Strep. The SW620-KO cells were cultured in the following media: DMEM/F-12, +10% FBS, +1× GlutaMAX, +10 mM HEPES, +0.5% Pen/Strep.
(§5) Reagents: The reagents used are listed below:
(§6) Cell culture: The cells were examined using an inverted microscope to check for health, cell density, etc. To dissociate adherent cells, the monolayer of cells was washed once with pre-warmed PBS. After removing the PBS, 3 ml pre-warmed Accutase was added to a F75 flask, dispersed evenly and the flask was allowed to sit in incubator for ˜4-5 minutes.
(§7) When a single cell suspension was obtained, 7 ml of prewarmed growth media was added and resuspended with the cells. The cell suspension was transferred to a sterile 15 ml conical centrifuge tube, and spun for 5 min at 300×g, RT. The supernatant was discarded and the pellet was resuspended in 10 ml of pre-warmed growth media.
(§8) The total cell count was determined, and 20 μl of the desired cell number was added to each well of a 384 well plate using a Multidrop Combi. The plates were then incubated for 24 hours at 37° C., 95% rH, and 5% CO2.
(§9) Compound treatment: 24 hours after seeding, the cells were treated with compounds.
(§10) A 1:333 dilution of compounds, diluted in DMSO, was made to get a final concentration of 0.3% DMSO per well. To transfer the compounds to the assay plate, 120 nl was shot from Labcyte low dead volume plates to the cell plates containing 20 μl media/well with the ECHO 555 liquid handling system.
(§11) After treatment, the cells were fed with 20 μl fresh pre-warmed assay media using a Multidrop combi.
(§12) The assay plates were then incubated for 96 h at 37° C., 95% rH, and 5% CO2.
(§13) 96 h after treatment 30 μl of CyQuant® reagent was added to the assay plates using a Multidrop combi in the dark. The plates were then incubated for 1 hour at 37° C., 95% rH and 5% CO2. Thereafter, the assay plates were removed from the incubator and allowed to equilibrate to RT for 30 min in the dark without lid. Finally, they were measured using an EnVision microplate reader with a FITC bottom read program.

SW620 Yap KO cells = experiment: Viability assay in SW620 Yap KO (Yap independent) cells, CyQUANT; assay type: cell-based; conditions: Homo sapiens, SW-620
Procedure: as §1, §2, §3, §4, §5, §6, §7, §8, §9, §10, §11, §12, §13

Row | SMILES | IC50 (YAP-TEAD interaction) [nM] | IC50 (NCI-H226 cells) [nM] | IC50 (SW620 Yap KO cells) [nM] | melting point [°C]
1 | COCC(NC(=O)c1ccc2c(c1)c1cn(C)nc1n2-c1ccc(C(F)(F)F)cc1)c1cnn(C)c1 (stereo not drawn) [Example B68, N-[2-methoxy-1-(1-methyl-1H-pyrazol-4-yl)ethyl]-2-methyl-8-[4-(trifluoromethyl)phenyl]-2H,8H-pyrazolo[3,4-b]indole-5-carboxamide] | 10 to 100 | 100 to 1000 | > 30000 | 
2 | COC(=O)c1ccc2c(c1)c1nn(C)cc1n2-c1ccc(C(F)(F)F)cc1 [Example 16, Methyl 2-methyl-4-[4-(trifluoromethyl)phenyl]pyrazolo[4,3-b]indole-7-carboxylate] | 10 to 100 | 1 to 100 | 1000 to 10000 | 111 to 112
3 | Cn1cc2c3cc(C(=O)NCc4ccncc4)ccc3n(-c3ccc(C(F)(F)F)cc3)c2n1 [Example 28, 2-methyl-N—[(pyridin-4-yl)methyl]-8-[4-(trifluoromethyl)phenyl]-2H, 8H-pyrazolo[3,4-b]indole-5-carboxamide] | > 10000 |  |  | 181 to 185
4 | Cn1cc2c3cc(C(=O)O)ccc3n(-c3ccc(F)cc3)c2n1 [Example 10, 8-(4-fluorophenyl)-2-methyl-2H,8H-pyrazolo[3,4-b]indole-5-carboxylic acid] | 10 to 100 | 100 to 1000 | > 30000 | 
5 | COc1nc(C)cc(CNC(=O)c2ccc3c(c2)c2cn(C)nc2n3-c2ccc(C(F)(F)F)cc2)n1 [B126^] | 10 to 100 | 1 to 100 | > 30000 | 
6 | CSc1ccc2c(c1)c1cn(C)nc1n2-c1ccc(C)cc1 [Example 31, 2-methyl-8-(4-methylphenyl)-5-(methylsulfanyl)-2H,8H-pyrazolo[3,4-b]indole] | 10 to 100 | > 10000 | > 30000 | 
7 | COc1ccc(-n2c3ccc(C(=O)O)cc3c3cn(C)nc32)cc1 [Example 14, 8-(4-methoxyphenyl)-2-methyl-2H,8H-pyrazolo[3,4-b]indole-5-carboxylic acid] | 10 to 100 | 100 to 1000 | > 30000 | 
8 | Cn1cc2c3cc(C(=O)O)ccc3n(-c3cccc(C(F)(F)F)c3)c2n1 [Example 6, 2-Methyl-8-[3-(trifluoromethyl)phenyl]-2H,8H-pyrazolo[3,4-b]indole-5-carboxylic acid] | 10 to 100 | 100 to 1000 | > 30000 | 
9 | Cn1cc2c(n1)c1cc(F)ccc1n2-c1ccc(C(F)(F)F)cc1 [Example 26, 7-fluoro-2-methyl-4-[4-(trifluoromethyl)phenyl]pyrazolo[4,3-b]indole] | 10 to 100 | > 10000 | 10000 to 30000 | 
10 | Cn1cc2c3cc(C(=O)O)ccc3n(-c3ccc(C4CCCC4)cc3)c2n1 [Example 22, 8-(4-cyclopentylphenyl)-2-methyl-2H,8H-pyrazolo [3,4-b]indole-5-carboxylic acid] | 10 to 100 | 100 to 1000 | > 30000 | 
11 | CN(C)S(=N)(=O)c1ccc2c(c1)c1nn(C)cc1n2-c1ccc(C(F)(F)F)cc1 (stereo not drawn) [Example 36, N,N,2-Trimethyl-4-[4-(trifluoromethyl)phenyl]-2H,4H-pyrazolo[4,3-b]indole-7-sulfonoimidamide] | 1 to 10 | 1 to 100 | > 30000 | 
12 | Cn1cc2c3cc(C(=O)N4CCCC4c4ncc[nH]4)ccc3n(-c3ccc(C(F)(F)F)cc3)c2n1 (stereo not drawn) [Example B52, 2-(1-{2-methyl-8-[4-(trifluoromethyl)phenyl]-2H,8H-pyrazolo[3,4-b]indole-5-carbonyl}pyrrolidin-2-yl)-1H-imidazole] | > 10000 |  |  | 
13 | COc1cc(CN(C)C(=O)c2ccc3c(c2)c2cn(C)nc2n3-c2ccc(C(F)(F)F)cc2)sn1 [B136^] | > 10000 |  |  | 
14 | Cn1cc2c3cc(C(=O)NCc4c(C5CC5)cnn4C)ccc3n(-c3ccc(C(F)(F)F)cc3)c2n1 [B102^] | 10 to 100 |  |  | 

The remaining lines, values ahead:

Row | IC50 (YAP-TEAD interaction) [nM] | IC50 (NCI-H226 cells) [nM] | IC50 (SW620 Yap KO cells) [nM] | melting point [°C] | SMILES
15 | 1 to 10 | 100 to 1000 | > 30000 |  | Cn1cc2c3cc(C(=O)O)ccc3n(-c3ccc(OC(F)(F)F)cc3)c2n1 [Example 18, 2-methyl-8-[4-(trifluoromethoxy)phenyl]-2H,8H-pyrazolo[3,4-b]indole-5-carboxylic acid]
16 | 100 to 10000 | > 10000 |  |  | Cn1cc2c(n1)c1cc([S+](C)[O-])ccc1n2-c1ccc(C(F)(F)F)cc1 (stereo not drawn) [Example 32, 7-methanesulfinyl-2-methyl-4-[4-(trifluoromethyl)phenyl]-2H,4H-pyrazolo[4,3-b]indole]
17 |  | 1 to 100 | 10000 to 30000 |  | Cc1ccc(-n2c3ccc(C(=O)O)cc3c3cn(C)nc32)cc1 [Example 9, 2-Methyl-8-(4-methylphenyl)-2H,8H-pyrazolo[3,4-b]indole-5-carboxylic acid]
18 | 10 to 100 | 100 to 1000 |  |  | CCCn1ncc(CNC(=O)c2ccc3c(c2)c2cn(C)nc2n3-c2ccc(C(F)(F)F)cc2)c1C [B123^]
19 | 10 to 100 | 1 to 100 | > 30000 |  | CCn1cc(C(O)CNC(=O)c2ccc3c(c2)c2cn(C)nc2n3-c2ccc(C(F)(F)F)cc2)cn1 (stereo not drawn) [Example B36, N-[2-(1-ethyl-1H-pyrazol-4-yl)-2-hydroxyethyl]-2-methyl-8-[4-(trifluoromethyl)phenyl]-2H,8H-pyrazolo[3,4-b]indole-5-carboxamide]
20 | 10 to 100 | 1 to 100 | > 30000 |  | Cn1cc2c3cc(C(=O)NCc4n[nH]cc4C4CC4)ccc3n(-c3ccc(C(F)(F)F)cc3)c2n1 [Example B22, N-[(4-cyclopropyl-1H-pyrazol-3-yl)methyl]-2-methyl-8-[4-(trifluoromethyl)phenyl]-2H,8H-pyrazolo[3,4-b]indole-5-carboxamide]
21 | 10 to 100 | > 10000 | > 30000 |  | Cn1cc2c(n1)c1cc(S(N)(=O)=O)ccc1n2-c1ccc(C(F)(F)F)cc1 [Example 34, 2-methyl-4-[4-(trifluoromethyl)phenyl]-2H,4H-pyrazolo[4,3-b]indole-7-sulfonamide]
22 | 1 to 10 | 100 to 1000 | > 30000 |  | Cn1cc2c(n1)c1cc(S(C)(=N)=O)ccc1n2-c1ccc(C(F)(F)F)cc1 (stereo not drawn) [Example 35, Imino(methyl){2-methyl-4-[4-(trifluoromethyl)phenyl]-2H,4H-pyrazolo[4,3-b]indol-7-yl}-lambda6-sulfanone]
23 | 10 to 100 | 100 to 1000 | > 30000 |  | CNC(=O)c1ccc2c(c1)c1nn(C)cc1n2-c1ccc(C(F)(F)F)cc1 [Example 17, N,2-dimethyl-4-[4-(trifluoromethyl)phenyl]pyrazolo [4,3-b]indole-7-carboxamide]
24 | 10 to 100 | 1 to 100 | > 30000 |  | Cn1cc2c3cc(C(=O)O)ccc3n(Cc3ccc(C(F)(F)F)cc3)c2n1 [Example 5, 2-Methyl-8-{[4-(trifluoromethyl)phenyl]methyl}-2H,8H-pyrazolo[3,4-b]indole-5-carboxylic acid]
25 | 10 to 100 | 100 to 1000 | > 30000 |  | Cn1cc2c3cc(C(=O)O)ccc3n(Cc3ccccc3)c2n1 [Example 12, 8-(Benzyl)-2-methyl-2H,8H-pyrazolo[3,4-b]indole-5-carboxylic acid]
26 | 10 to 100 |  |  |  | Cn1cc2c3cc(C(=O)NC(c4ncon4)C4CC4)ccc3n(-c3ccc(C(F)(F)F)cc3)c2n1 (stereo not drawn) [Example B31, N-[cyclopropyl(1,2,4-oxadiazol-3-yl)methyl]-2-methyl-8-[4-(trifluoromethyl)phenyl]-2H,8H-pyrazolo[3,4-b]indole-5-carboxamide]
27 | 100 to 10000 |  |  |  | Cn1cc2c3cc(C(=O)NCc4cc(C5CCC5)n[nH]4)ccc3n(-c3ccc(C(F)(F)F)cc3)c2n1 [Example B17, N-[(3-cyclobutyl-1H-pyrazol-5-yl)methyl]-2-methyl-8-[4-(trifluoro-methyl)phenyl]-2H,8H-pyrazolo[3,4-b]indole-5-carboxamide]
28 | > 10000 |  |  |  | CCn1ncc(CNC(=O)c2ccc3c(c2)c2cn(C)nc2n3-c2ccc(C(F)(F)F)cc2)c1F [B119^]

— patent US20230174538A1, “Tricyclic heterocycles” (Merck Patent GmbH, priority 2020, published 2023)
